# Tests used:
# [1] = test system: chickens; test: Plasma thromboxane B2 and platelet factor 4 in chickens fed supplemented diets; assay type: in vivo, chicken; conditions: control diet + 50 ppm, 4 weeks
# Text: We next measured the effects of TRF and its components on serum levels of apolipoprotein (a)1, apolipoprotein B, triglycerides and glucose and the plasma levels of thromboxane B2 and platelet factor 4.
# [2] = test system: cholesterol 7α-hydroxylase; test: Hepatic cholesterol 7α-hydroxylase activity in hypercholesterolemic swine; assay type: in vivo; conditions: control diet + 50 ppm
# Text: All assays conducted on chicken or swine serum were done following the protocols described in A. A. Qureshi et al., "Lowering Of Serum Cholesterol In Hypercholesterolemic Humans By Tocotrienols" (Palmvitee), Am. J. Clin. Nutr., 53, pp. 1021S-26S (1991). All enzymatic assays were done following the protocols described in A. A. Qureshi et al., "Effects of Cereals and Culture Filtrate of Trichoderma viride on Lipid Metabolism of Swine", Lipids, 17, pp. 924 (1982). Plasma insulin, glucagon and TNF levels were measured using radioinnumoassay kits from Ventrex Laboratories, Inc. (Portland, Me.), ICN Biomedicals, Inc. (Costa Mesa, Calif.) and Genzyme Corp. (Cambridge, Mass.), respectively.
# We next measured the effects of various tocotrienols from rice bran on HMG-CoA reductase and cholesterol 7α-hydroxylase in hypercholesterolemic swine. Since pigs are very similar to humans in their cholesterol metabolism, they provide a useful model from which to study hypercholesterolemia and related diseases. […] The serum cholesterol concentration in these swine is typically above 300-500 mg/dl, as compared to 120-160 mg/dl in normal adult swine. As a result, the pigs develop complicated atherosclerotic plaques that closely resemble advanced atherosclerotic lesions found in humans.
# (§1) Each group of three 5-month old swine was administered either a control diet or a control diet supplemented with 50 ppm of TRF or 50 ppm of an individual tocotrienol. The samples were prepared as described in Example 11. After a 12 hour fast, serum and plasma samples were taken a 0 hrs, 21 days and 42 days from the start of the feeding period. After taking serum and plasma samples from the pigs at the end of the 42 day period, all of the swine were fasted for a total of 40 hours, followed by a 48 hour refeeding period. One swine from each group was sacrificed at that time and the liver, intestine, lung, heart, loin muscle, adipose tissue and ham muscle were removed.
# [3] = test system: hypercholesterolemic swine; test: Total cholesterol, triglyceride and glucose concentrations in tissues of hypercholesterolemic swine; assay type: in vivo; conditions: control diet + 50 ppm, 42 days
# Procedure: as §1, with “The samples were prepared as described in Example 11.” left out
# We next determined the effect of tocotrienols on the total cholesterol, triglyceride and glucose concentrations in various tissues of hypercholesterolemic swine.
# [4] = test system: chickens; test: Antibody titers to sheep red blood cells in chickens; assay type: in vivo, chicken; conditions: control diet + 50 ppm, 4 weeks, sheep red blood cells i.p.
# Procedure: The model for this study was 6-week old female white leghorn chickens. Each group of 12 chickens was fed an unsupplemented chicken diet or a control diet supplemented with 50 ppm of a tocotrienol or 100 ppm of a commercially available hypercholesterolemic agent (Geraniol or Lovastatin). […] The chickens were fed over a period of 4 weeks, then the blood was drawn. The antibody response was determined by injecting the chickens i.p. with 0.5 ml of a 5% suspension of sheep red blood cells (RBCs) in PBS (v/v) which were previously washed three times. […] Relative IgG levels were determined by using 2-mercaptoethanol preincubation for 30 min. The relative IgM levels were calculated by subtracting the IgG antibody levels from total antibody levels. All antibody levels are expressed as the log base 2 of the highest titer that was needed to hemagglutinate an equal volume of 0.5% RBC suspension.
smiles,measurement,setting,value
"CC(C)=CCC/C(C)=C/CC/C(C)=C/CCC1(C)CCc2cc(O)c(C)c(C)c2O1 (stereo not drawn) [γ-T3, γ-tocotrienol, reference compound]",Platelet Factor 4,[1],8.36 ng/mL
same,"Platelet Factor 4, percentage of control",[1],63.87%
same,Thromboxane B2,[1],19.22 pg/mL
same,"Thromboxane B2, percentage of control",[1],74.38%
same,"CHOLESTEROL 7α-HYDROXYLASE, percentage of baseline value",[2]; 21 days,100.89%
same,Cholesterol 7α-hydroxylase,[2]; 21 days,4.53 pg/min/mg of microsomes
same,"CHOLESTEROL 7α-HYDROXYLASE, Percentage of Control Activity",[2]; 42 days,98.18%
same,"CHOLESTEROL 7α-HYDROXYLASE, percentage of baseline value",[2]; 42 days,102.00%
same,Cholesterol 7α-hydroxylase,[2]; 42 days,4.58 pg/min/mg of microsomes
same,"TOTAL CHOLESTEROL CONCENTRATION, Adipose Tissue",[3],94.55 mg/100 gm
same,"TOTAL CHOLESTEROL CONCENTRATION, Ham Muscle",[3],85.15 mg/100 gm
same,"TOTAL CHOLESTEROL CONCENTRATION, Heart",[3],56.68 mg/100 gm
same,"TOTAL CHOLESTEROL CONCENTRATION, Intestine",[3],187.06 mg/100 gm
same,"TOTAL CHOLESTEROL CONCENTRATION, Liver",[3],149.20 mg/100 gm
same,"TOTAL CHOLESTEROL CONCENTRATION, Loin Muscle",[3],103.48 mg/100 gm
same,"TOTAL CHOLESTEROL CONCENTRATION, Lung",[3],83.79 mg/100 gm
same,"TOTAL CHOLESTEROL, Adipose Tissue, percentage of control",[3],86.43%
same,"TOTAL CHOLESTEROL, Ham Muscle, percentage of control",[3],85.15%
same,"TOTAL CHOLESTEROL, Heart, percentage of control",[3],87.86%
same,"TOTAL CHOLESTEROL, Intestine, percentage of control",[3],86.81%
same,"TOTAL CHOLESTEROL, Liver, percentage of control",[3],74.01%
same,"TOTAL CHOLESTEROL, Loin Muscle, percentage of control",[3],86.51%
same,"TOTAL CHOLESTEROL, Lung, percentage of control",[3],82.36%
same,"TOTAL GLUCOSE CONCENTRATION, Adipose Tissue",[3],15.93 mg/100 gm
same,"TOTAL GLUCOSE CONCENTRATION, Ham Muscle",[3],52.10 mg/100 gm
same,"TOTAL GLUCOSE CONCENTRATION, Heart",[3],46.81 mg/100 gm
same,"TOTAL GLUCOSE CONCENTRATION, Intestine",[3],62.50 mg/100 gm
same,"TOTAL GLUCOSE CONCENTRATION, Liver",[3],383.68 mg/100 gm
same,"TOTAL GLUCOSE CONCENTRATION, Loin Muscle",[3],60.30 mg/100 gm
same,"TOTAL GLUCOSE CONCENTRATION, Lung",[3],63.08 mg/100 gm
same,"TOTAL GLUCOSE, Adipose Tissue, percentage of control",[3],86.86%
same,"TOTAL GLUCOSE, Ham Muscle, percentage of control",[3],96.80%
same,"TOTAL GLUCOSE, Heart, percentage of control",[3],95.05%
same,"TOTAL GLUCOSE, Intestine, percentage of control",[3],86.84%
same,"TOTAL GLUCOSE, Liver, percentage of control",[3],94.53%
same,"TOTAL GLUCOSE, Loin Muscle, percentage of control",[3],84.64%
same,"TOTAL GLUCOSE, Lung, percentage of control",[3],94.25%
same,"TOTAL TRIGLYCERIDES CONCENTRATION, Adipose Tissue",[3],391.58 mg/100 gm
same,"TOTAL TRIGLYCERIDES CONCENTRATION, Ham Muscle",[3],181.99 mg/100 gm
same,"TOTAL TRIGLYCERIDES CONCENTRATION, Heart",[3],142.72 mg/100 gm
same,"TOTAL TRIGLYCERIDES CONCENTRATION, Intestine",[3],351.33 mg/100 gm
same,"TOTAL TRIGLYCERIDES CONCENTRATION, Liver",[3],397.51 mg/100 gm
same,"TOTAL TRIGLYCERIDES CONCENTRATION, Loin Muscle",[3],201.65 mg/100 gm
same,"TOTAL TRIGLYCERIDES CONCENTRATION, Lung",[3],167.18 mg/100 gm
same,"TOTAL TRIGLYCERIDES, Adipose Tissue, percentage of control activity",[3],89.88%
same,"TOTAL TRIGLYCERIDES, Ham Muscle, percentage of control activity",[3],97.93%
same,"TOTAL TRIGLYCERIDES, Heart, percentage of control activity",[3],98.96%
same,"TOTAL TRIGLYCERIDES, Intestine, percentage of control activity",[3],98.24%
same,"TOTAL TRIGLYCERIDES, Liver, percentage of control activity",[3],92.58%
same,"TOTAL TRIGLYCERIDES, Loin Muscle, percentage of control activity",[3],91.79%
same,"TOTAL TRIGLYCERIDES, Lung, percentage of control activity",[3],97.22%
same,IgG antibody titers in serum,[4],1.28 Log 2
same,IgM antibody titers in serum,[4],5.83 ± 1.53 Log 2
same,Total Ab titers in serum,[4],6.60 ± 1.51 Log 2
